For the test, the target named is T1, VHL (VBC complex) (Homo sapiens, UniProt P40337).
T1 construct: equimolar complex of pVHL54-213, eloB1-104 and; made in house; host or cells: E. coli
Nature of the test: 19F CPMG NMR transverse relaxation rate (R2) and R2 contrast (C2) of spy molecule with and without protein. The format is binding. The text has this: Due to the large CSA of fluorine and the significant differences in the fluorine isotropic chemical shift (δF) between the free and bound states, the transverse relaxation rate (R2) is a well-established sensitive parameter to detect ligand binding.[4] Therefore, fluorine NMR experiments including a Carr–Purcell–Meiboom–Gill (CPMG) spin-echo filter[10] before acquisition were employed to monitor ligand binding to VHL by measuring peak intensity, as changes in other NMR parameters, such as chemical shift and peak width, were not as significant. The R2 values of the CF3 peak of each compound in the absence and in the presence of protein were determined by performing multiple ^19F CPMG experiments varying the CPMG filter (Fig. 2a). To quantify the shift in R2 upon binding, the R2 contrast (C2)[11] was determined. Ideally, a good spy molecule should have a large increase in R2 (fast relaxation) when protein is present, resulting in a large assay window for the competition experiments (Fig. 2b).
5. Measurement of the transverse relaxation rates by 19F CPMG NMR
All the NMR experiments were performed in a 500 MHz Bruker AVANCE N MR spectrometer equipped with a CPQCI -F cryoprobe. To measure the transverse relaxation rates (R 2), a solution of each spy molecule at 100 μM was prepared in 50 mM potassium phosphate monobasic (KH2PO4), pH 7.5, 100 mM NaCl, 1 mM TCEP, 2% (v/v) DMSO, 20% D2O and 10 µM trifluoroacetic acid (TFA). For each solution, 19F CPMG experiments […]
Due to the fast relaxation of molecules 21 and 22, these experiments were repeated with shorter CPMG filters (50, 100, 150, 200, 300, 400, 700 and 1000 ms). The fluorine peaks were integrated and plotted against the resp ective CPMG filters. The R 2 relaxation rates were obtained from fitting the data as a n exponential decay (GraphPad Prism 6) according to the equation below: [7]
Where I(t) is the 19F signal intensity or integral, t is the total CPMG filter in seconds, I(0) is the signal intensity when t = 0. To obtain the R2 upon addition of prot ein, all the experiments above were repeated in presence of VBC at 1 µM. Experiments were performed as triplicates and the R 2 contrasts (C2) were obtained according to the equation below: [8]
Where R2Free is the R2 obtained for the spy molecule free in solution and R2Observed is the R2 obtained with the spy molecule in presence of VBC. The raw data, fitting, R2 and C2 values for each spy molecule can be found in section 8.1. For the R2 measurements using molecule 19 at varied concentrations of spy molecule and protein, see section 8.2 . For the R2 measurements using spy molecules 6 and 11 (used to generate figures S 2, S3 and S4) see

Setting [1] is: Spy molecule 100 μM + VBC 1 μM, supplement 8.1.
The mark [2] stands for this setting: Spy molecule 100 μM, no protein.
Where [3] appears, read: Spy molecule 19 at 10 µM, VBC 0.125 μM.
Setting [4] is: Spy molecule 19 at 10 µM, VBC 0.250 μM.
The mark [5] stands for this setting: Spy molecule 19 at 10 µM, VBC 0.500 μM.
[6] abbreviates: Spy molecule 19 at 10 µM, VBC 1.000 μM.
Where [7] appears, read: Spy molecule 19 at 25 µM, VBC 0.125 μM.
[8] abbreviates: Spy molecule 19 at 25 µM, VBC 0.250 μM.
Where [9] appears, read: Spy molecule 19 at 25 µM, VBC 0.500 μM.
[10] abbreviates: Spy molecule 19 at 25 µM, VBC 1.000 μM.
[11] abbreviates: Spy molecule 19 at 50 µM, VBC 0.125 μM.
The mark [12] stands for this setting: Spy molecule 19 at 50 µM, VBC 0.250 μM.
Where [13] appears, read: Spy molecule 19 at 50 µM, VBC 0.500 μM.
Setting [14] is: Spy molecule 19 at 50 µM, VBC 1.000 μM.
Where [15] appears, read: spy concentration not given, VBC 0.125 μM.
Where [16] appears, read: spy concentration not given, VBC 0.250 μM.
Where [17] appears, read: spy concentration not given, VBC 0.500 μM.
[18] abbreviates: spy concentration not given, VBC 1.000 μM.

SMILES strings stand for the structures.

T1 sequence (P40337 54-213): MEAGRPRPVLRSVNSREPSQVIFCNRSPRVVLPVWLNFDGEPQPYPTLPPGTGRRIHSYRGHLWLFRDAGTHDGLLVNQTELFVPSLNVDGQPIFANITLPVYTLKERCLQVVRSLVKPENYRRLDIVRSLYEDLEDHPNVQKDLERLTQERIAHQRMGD
T1 sequence (Q15370 1-104 partner limits assumed): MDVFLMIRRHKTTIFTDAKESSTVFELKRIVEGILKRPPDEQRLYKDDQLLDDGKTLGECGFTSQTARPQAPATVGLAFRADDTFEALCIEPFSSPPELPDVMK
T1 sequence (Q15369 17-112 partner limits assumed): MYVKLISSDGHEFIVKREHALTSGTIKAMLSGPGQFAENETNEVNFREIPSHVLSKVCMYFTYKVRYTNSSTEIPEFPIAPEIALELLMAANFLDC

Consider `CC(C)(C)CC(=O)N1C[C@H](O)C[C@H]1C(=O)NCc1ccc(Br)c(C(F)(F)F)c1` [Compound 3], for which the R2 is, setting by setting: (Spy molecule 100 μM + VBC 1 μM) 1.847 ± 0.033 s⁻¹; under setting [2], 1.326 ± 0.025 s⁻¹. In addition, under setting [1], the “R2 contrast – C2” value is recorded as 28.2 ± 2.3%.

For the compound `CC(=O)N1C[C@H](O)C[C@H]1C(=O)NCc1ccc(Br)cc1C(F)(F)F` [Compound 10], the R2 by setting is: (Spy molecule 100 μM + VBC 1 μM) 2.596 ± 0.046 s⁻¹; under setting [2], 1.249 ± 0.018 s⁻¹. Also, the “R2 contrast – C2” value under setting [1] is given as 51.9 ± 2.1%.

For `CC(=O)NC(C(=O)N1CC(O)CC1C(=O)NCc1ccc(Br)cc1C(F)(F)F)C(C)(C)C` (stereo not drawn) [Compound 12], the R2 runs as follows: (Spy molecule 100 μM + VBC 1 μM) 1.637 ± 0.028 s⁻¹; under setting [2], 1.512 ± 0.029 s⁻¹. Further, the “R2 contrast – C2” value under setting [1] came out at 7.6 ± 2.4%.

As to `O=C(NCc1ccc(Br)cc1)C1CC(O)CN1C(=O)CC(F)(F)F` (stereo not drawn) [Compound 19], the R2 (Spy molecule 100 μM + VBC 1 μM) was found to be 5.096 ± 0.186 s⁻¹; the R2 under setting [2] was 1.526 ± 0.041 s⁻¹; the R2 (Spy molecule 19 at 10 µM, VBC 0.000 μM) is 1.464 ± 0.096 s⁻¹; the R2 under setting [3] worked out at 2.346 ± 0.193 s⁻¹; the R2 under setting [4] worked out at 2.807 ± 0.131 s⁻¹; the R2 under setting [5] was determined as 4.288 ± 0.304 s⁻¹. The R2 under setting [6] was determined as 7.974 ± 0.727 s⁻¹; the R2 (Spy molecule 19 at 25 µM, VBC 0.000 μM) was found to be 1.582 ± 0.049 s⁻¹; the R2 under setting [7] is 2.107 ± 0.095 s⁻¹; the R2 under setting [8] was 2.811 ± 0.156 s⁻¹; the R2 under setting [9] was 4.008 ± 0.200 s⁻¹; the R2 under setting [10] was 6.934 ± 0.348 s⁻¹. Also, the R2 was found to be 1.475 ± 0.059 s⁻¹ (Spy molecule 19 at 50 µM, VBC 0.000 μM); 1.969 ± 0.071 s⁻¹ under setting [11]; 2.316 ± 0.168 s⁻¹ under setting [12]; 3.857 ± 0.121 s⁻¹ under setting [13]; 6.424 ± 0.262 s⁻¹ under setting [14]; 1.392 ± 0.101 s⁻¹ (spy concentration not given, VBC 0.000 μM). In addition, the R2 is, setting by setting: under setting [15], 2.337 ± 0.335 s⁻¹; under setting [16], 3.678 ± 0.489 s⁻¹; under setting [17], 4.255 ± 0.566 s⁻¹; under setting [18], 7.063 ± 1.128 s⁻¹. Moreover, the “R2 contrast – C2” value by setting is: under setting [1], 70.1 ± 4.5%; under setting [3], 35.0 ± 8.9%; under setting [4], 45.6 ± 5.3%; under setting [5], 64.4 ± 8.5%; under setting [6], 80.9 ± 11.7%; under setting [7], 27.6 ± 5.1%. Moreover, the “R2 contrast – C2” value runs as follows: under setting [8], 45.7 ± 6.3%; under setting [9], 61.9 ± 5.9%; under setting [10], 78.0 ± 6.4%; under setting [11], 22.5 ± 4.2%; under setting [12], 34.1 ± 7.9%; under setting [13], 60.4 ± 3.8%. Also, the “R2 contrast – C2” value by setting is: under setting [14], 76.2 ± 5.2%; under setting [15], 34.7 ± 15.3%; under setting [16], 58.5 ± 15.5%; under setting [17], 64.1 ± 15.8%; under setting [18], 78.4 ± 20.3%.
